Assays:
Type in all cases: cell-based
[1] = tested on: rat peritoneal mast cells; assay: Degranulation of rat peritoneal mast cells (β-hexosaminidase activity in supernatant); settings: for degranulation: 20 minutes
Method: The rat peritoneal mast cells (RPMC) obtained by the procedure described in EXAMPLE 1 were subjected to passive sensitization for 30 minutes on ice using DNP IgE (Yamasa, 10 μg/ml), washed and plated on a 96-well plate in a final cell concentration of 100,000 cells/well in the reaction solution. RPMC was stimulated by lysoPS and DNP-BSA (Carbiochem) and the plate was centrifuged 20 minutes after. The β-hexosaminidase activity in the supernatant of the reaction solution was assayed using the degradation activity of 4-methylumbeliferryl-2-acetamido-2-deoxy-β-D-glucopyranoside (Wako Pure Chemicals) as an indicator.

[2] = tested on: rat primary culture microglial cells (PMGC); assay: Expression of cytokine genes in activated PMGC (TaqMan PCR); settings: lysoPS 5 μM, LPS 1 μg/ml, IFN-α 1 ng/ml
Method: In order to examine the action of lysoPS on the activation of microglia, actions induced by the addition of lysoPS in PMGC activated by LPS stimulation was examined in the presence of IFN-α. PMGC, which was prepared from the brain of rat of one day old on the preceding day, was plated on a 24-well plate (Falcon 353047) at 50000 cells/well, and IFN-α (1 ng/ml, Biovision) was added 6 hours after. On the following day, lysoPS (5 μM) was added upon stimulation by LPS (1 μg/ml), and comparison was made between the presence and absence of lysoPS if cytokine production was affected. RNA was prepared as in the procedure described in EXAMPLE 4 for 2 and 8 hours after addition or without addition of LPS and lysoPS (5 μM). The sequencing information of the primers, probe and standard used for TaqMan are as described above. The cytokine production was compared by TaqMan PCR in terms of changes in expression levels of cytokine genes.

GPR34 = biological target: T1, GPR34 (Homo sapiens, UniProt Q9UPC5); assay: MAPK activation: phosphorylation of ERK1/2 in human GPR34-expressed CHO cells (western blotting); settings: human GPR34-expressed CHO cells
T1 construct: expressed in transfected cells
T1 sequence (Q9UPC5 whole entry): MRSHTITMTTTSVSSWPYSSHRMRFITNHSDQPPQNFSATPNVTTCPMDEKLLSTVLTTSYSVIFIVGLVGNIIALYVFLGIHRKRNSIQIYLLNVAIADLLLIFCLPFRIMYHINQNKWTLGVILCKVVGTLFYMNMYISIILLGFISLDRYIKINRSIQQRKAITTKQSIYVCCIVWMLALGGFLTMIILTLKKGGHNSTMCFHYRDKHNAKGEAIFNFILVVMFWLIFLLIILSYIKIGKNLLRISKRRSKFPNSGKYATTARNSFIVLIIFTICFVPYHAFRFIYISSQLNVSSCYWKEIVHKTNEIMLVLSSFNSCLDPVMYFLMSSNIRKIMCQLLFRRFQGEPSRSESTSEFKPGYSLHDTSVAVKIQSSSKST
Method: The cells were prepared as described below. Human GPR34-expressed CHO cells were scraped off with 0.05% trypsin-EDTA (GIBCO) and suspended in a medium (MEM-α (GIBCO), supplemented with 10% FBS (GIBCO) and penicillin/streptomycin (BIOWHITTAKER)). After centrifugation, the cells precipitated were suspended in the medium in 2×10^5 cells/ml and a 1 mL aliquot was plated on a 35 mm cell culture dish. After incubation overnight in a CO2 incubator, the medium was aspirated and washed in PBS. Then 1 mL of serum-free medium (MEM-α (GIBCO), supplemented with penicillin/streptomycin (BIOWHITTAKER)) and incubation was performed in a CO2 incubator. Pertussis toxin (hereinafter PTX) was added in a final concentration of 0.1 μg/mL 20 hours before the assay.
The cells were activated as follows. The medium was aspirated and washed in PBS. Thereafter, 500 μL of assay buffer (HBSS (GIBCO), 10 mM HEPES (Dojin Chemical Laboratory)) was added to perform preincubation for 15 minutes at 37° C. The lysoPS solution and […] of PECGF ([…] cell growth factor) solution as a positive control were added. After the mixture was incubated at 37° C., the reaction was terminated by quenching. The assay buffer was aspirated and washed in PBS. Then, 1×SDS sample buffer/DTT was added to the cells to recover the cells. After ultrasonication for 15 seconds, heating at 95° C. for 5 minutes was followed by quenching.
Detection by SDS-PAGE and western blotting were performed as follows. After separation using 10% Bis-Tris gel (Invitrogen), the gel was transferred to Immuno-Blot PVDF Membrane (Bio-Rad). The membrane was blocked with Block Ace (Dai-Nippon Pharmaceutical) and incubated at room temperature for an hour with a primary antibody (Phospho-p42/p44 MAP Kinase (Thr202/Thr204) Antibody (CST) or p42/p44 MAP Kinase Antibody (CST)) and further incubated at room temperature for an hour using a secondary antibody (Anti-rabbit IgG (CST)). The membrane after the antibody reaction was visualized by chemiluminescence using ECL PLUS (Amersham Biosciences). […]

[3] = tested on: rat primary culture microglial cells (PMGC); assay: Phosphorylation of ERK1/2 in PMGC; settings: lysoPS

lysophosphatidylserine [lysoPS] was tested. Which degranulation ([1]; 100 ng/ml DNP-BSA with 0.1 μM lysoPS added simultaneously) did it give?
The degranulation was 8.4%.

What about the degranulation ([1]; 100 ng/ml DNP-BSA with 0.3 μM lysoPS added simultaneously) of the same substance?
Its degranulation is 14.7%.

And the degranulation ([1]; 100 ng/ml DNP-BSA with 1 μM lysoPS added simultaneously)?
The degranulation was 26.0%.

And the degranulation ([1]; 100 ng/ml DNP-BSA with 3 μM lysoPS added simultaneously)?
The degranulation was 36.7%.

And the degranulation ([1]; 100 ng/ml DNP-BSA with 10 μM lysoPS added simultaneously)?
The degranulation was 45.2%.

What about the “degranulation (in words)” value ([1]; 0.1 to 10 μM lysoPS with 100 ng/ml DNP-BSA) of the same substance?
The value was “increased concentration-dependently”.

What about the “expression of inflammatory cytokine IL-6” value ([2]; 2 hours after the addition) of the same substance?
The value was “tendency to suppress the expression”.

And the “expression of inflammatory cytokine TNF-α” value ([2]; 2 hours after the addition)?
Its value is “tendency to suppress the expression”.

And the “expression of anti-inflammatory cytokine IL-10” value ([2]; 8 hours after)?
Its value is “tendency to increase its expression”.

And the “phosphorylation of ERK1/2 30 minutes after the stimulation” value (GPR34)?
The value was “the phosphorylation was noted”.

And the “time of maximum response of ERK1/2 phosphorylation after the stimulation” value (GPR34)?
The value was “about 5 minutes”.

And the “phosphorylation of ERK1/2” value [3]?
The value was “also noted in PMGC”.
